Assay results taken from ChEMBL document CHEMBL1201862, “PubChem BioAssay data set” (2004).
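Dose response: 5 concentrations. Exposure: 48 h. Format: 96-well plates. Endpoint: linear interpolation; highest concentration if not reached. GI50 = concentration required for 50% inhibition of growth.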 The source made the active and inactive calls. Rule as the data show it: active = GI50 up to about 1.1 µM and inactive = higher.

What was measured:
Assay in all cases: DTP human tumour cell line panel, 48 h
A498 = system: A498
K562 = system: K562
HOP-62 = system: HOP-62
CCRF-CEM = system: CCRF-CEM
MDA-N = system: MDA-N
OVCAR-3 = system: OVCAR-3
T47D = system: T47D
786-0 = system: 786-0
CAKI-1 = system: CAKI-1
OVCAR-4 = system: OVCAR-4
MOLT-4 = system: MOLT-4
SF-539 = system: SF-539
LOX IMVI = system: LOX IMVI
SNB-75 = system: SNB-75
SR = system: SR
SW-620 = system: SW-620
NCI-H226 = system: NCI-H226
Hs-578T = system: Hs-578T

SMILES | GI50 (A498) | GI50 (K562) | GI50 (HOP-62) | GI50 (CCRF-CEM) | GI50 (MDA-N) | GI50 (OVCAR-3) | GI50 (T47D) | GI50 (786-0) | GI50 (CAKI-1) | GI50 (OVCAR-4) | GI50 (MOLT-4) | GI50 (SF-539) | GI50 (LOX IMVI) | GI50 (SNB-75) | GI50 (SR) | GI50 (SW-620) | GI50 (NCI-H226) | GI50 (Hs-578T)
CN(C)/N=N/c1ccc(NC=O)cc1 | > 100 µM (inactive) | 43.3 µM (inactive) | > 100 µM (inactive) | 40.7 µM (inactive) | > 100 µM (inactive) | > 100 µM (inactive) | 39.6 µM (inactive) | > 100 µM (inactive) | > 100 µM (inactive) | > 100 µM (inactive) | 55.8 µM (inactive) | > 100 µM (inactive) | > 100 µM (inactive) | > 100 µM (inactive) | 48.6 µM (inactive) | > 100 µM (inactive) |  | 
CCc1ccc(COC(=O)C2=C(C)NC(C)=C(C(=O)OCc3ccc(CC)cn3)C2C2=COCCO2)nc1 |  | 18.2 µM (inactive) | 17.5 µM (inactive) | 16.2 µM (inactive) |  | 19.7 µM (inactive) | 11.3 µM (inactive) | 23.2 µM (inactive) | 23.9 µM (inactive) | 25.1 µM (inactive) | 12.6 µM (inactive) | 14.4 µM (inactive) | 15.2 µM (inactive) | 14.4 µM (inactive) | 21.8 µM (inactive) | 27.8 µM (inactive) | 16.2 µM (inactive) | 14 µM (inactive)
O=c1c2ccccc2ncn1COCc1ccccc1 | > 100 µM (inactive) | > 100 µM (inactive) |  | > 100 µM (inactive) |  | > 100 µM (inactive) |  | > 100 µM (inactive) |  | > 100 µM (inactive) | > 100 µM (inactive) | > 100 µM (inactive) | > 100 µM (inactive) |  | > 100 µM (inactive) | > 100 µM (inactive) | > 100 µM (inactive) | 
Cc1cc(C)c(/C=C2\C(=O)Nc3ccccc32)[nH]1 [SEMAXANIB] | > 100 µM (inactive) | > 100 µM (inactive) | > 82.2 µM (inactive) | > 100 µM (inactive) | > 95.9 µM (inactive) | > 100 µM (inactive) | > 100 µM (inactive) | > 100 µM (inactive) | > 59.2 µM (inactive) | 52.5 µM (inactive) | > 78.2 µM (inactive) | > 100 µM (inactive) | > 100 µM (inactive) | 0.906 µM (active) | 17.9 µM (inactive) | > 87.7 µM (inactive) | 1.22 µM (inactive) | 
C=CCCC1(O)C(O)C(CO)O[C@H](O[C@@]2(CO)OC(CO)C(O)C2O)C1O (stereo partly specified) |  | > 100 µM (inactive) | > 100 µM (inactive) | > 100 µM (inactive) |  |  |  | > 100 µM (inactive) | > 100 µM (inactive) | > 100 µM (inactive) | > 100 µM (inactive) | > 100 µM (inactive) | > 100 µM (inactive) | > 100 µM (inactive) | > 100 µM (inactive) | > 100 µM (inactive) | > 100 µM (inactive) | 
CCOC(=O)CNC(=O)C(CSCc1ccc(Br)cc1)NC(=O)CCC(N)C(=O)OCC (stereo unspecified) |  | > 50 µM (inactive) | > 50 µM (inactive) | > 50 µM (inactive) | > 50 µM (inactive) | > 50 µM (inactive) |  | > 50 µM (inactive) | > 50 µM (inactive) | > 50 µM (inactive) | > 50 µM (inactive) | > 50 µM (inactive) |  | > 50 µM (inactive) | > 50 µM (inactive) | > 50 µM (inactive) |  | > 50 µM (inactive)
NCC(=O)N[C@H]1c2ccsc2/C(=N/O)[C@H]1O | > 100 µM (inactive) | > 100 µM (inactive) | > 100 µM (inactive) | > 100 µM (inactive) | > 100 µM (inactive) | > 100 µM (inactive) | > 100 µM (inactive) |  | > 100 µM (inactive) | 68.9 µM (inactive) | > 100 µM (inactive) | > 100 µM (inactive) | > 100 µM (inactive) |  | > 100 µM (inactive) | > 100 µM (inactive) | > 100 µM (inactive) | 
OCCN1c2ccccc2Sc2ccccc21 |  | > 10 µM (inactive) | > 10 µM (inactive) |  | > 10 µM (inactive) | > 10 µM (inactive) |  | > 10 µM (inactive) | > 10 µM (inactive) | > 10 µM (inactive) | > 10 µM (inactive) | > 10 µM (inactive) | > 10 µM (inactive) | > 10 µM (inactive) | > 10 µM (inactive) | > 10 µM (inactive) |  | > 10 µM (inactive)
COC(=O)[C@H](Cc1ccccc1)NP(=O)(O)OCC1C=CC(n2cc(C)c(=O)[nH]c2=O)O1 (stereo partly specified) |  | > 100 µM (inactive) | > 100 µM (inactive) | > 100 µM (inactive) |  | > 100 µM (inactive) | > 100 µM (inactive) | > 100 µM (inactive) | > 100 µM (inactive) | > 100 µM (inactive) | > 100 µM (inactive) |  | > 100 µM (inactive) | > 100 µM (inactive) |  | > 100 µM (inactive) | > 100 µM (inactive) | > 100 µM (inactive)
CCOC(=O)c1csc(NC(=O)C(C)N2CCCCC2)n1 (stereo unspecified) | > 100 µM (inactive) | > 100 µM (inactive) | > 100 µM (inactive) | > 100 µM (inactive) | > 100 µM (inactive) | > 100 µM (inactive) | > 100 µM (inactive) |  | > 100 µM (inactive) | > 100 µM (inactive) | > 100 µM (inactive) | > 100 µM (inactive) | > 100 µM (inactive) | > 100 µM (inactive) | 2.51 µM (inactive) | > 100 µM (inactive) |  | 
O=C1Nc2ccccc2C(=O)/C1=C/NC(=S)NCCc1ccccc1 |  |  | > 100 µM (inactive) |  | > 100 µM (inactive) | > 100 µM (inactive) | > 100 µM (inactive) | > 100 µM (inactive) | > 100 µM (inactive) | > 100 µM (inactive) | 4.03 µM (inactive) | > 100 µM (inactive) | > 100 µM (inactive) | > 100 µM (inactive) |  | > 100 µM (inactive) | > 100 µM (inactive) | 
CCOC(=O)c1sc2nc(SC)nc3c2c1NC(=O)CN3c1cccc(F)c1 | 18.2 µM (inactive) | 22.4 µM (inactive) | 14.5 µM (inactive) |  | 29.8 µM (inactive) | 19.7 µM (inactive) |  |  | 44.3 µM (inactive) | 17.9 µM (inactive) | 30 µM (inactive) | 0.735 µM (active) | 17.8 µM (inactive) |  | 70 µM (inactive) | 0.834 µM (active) | 6.93 µM (inactive) | 29.2 µM (inactive)
CCOP(=O)(OCC)C(Nc1ccc(C(=O)O)cc1)c1ccc(C(Nc2ccc(C(=O)O)cc2)P(=O)(OCC)OCC)cc1 (stereo unspecified) | > 100 µM (inactive) | > 100 µM (inactive) | > 100 µM (inactive) | > 100 µM (inactive) |  | > 100 µM (inactive) | > 100 µM (inactive) | > 100 µM (inactive) | > 100 µM (inactive) | > 100 µM (inactive) | > 100 µM (inactive) |  | > 100 µM (inactive) | > 100 µM (inactive) |  | > 100 µM (inactive) | > 100 µM (inactive) | > 100 µM (inactive)
O=c1cc(N2CCCC2)[nH]c(=O)n1-c1ccccc1 |  | > 100 µM (inactive) | > 100 µM (inactive) | > 100 µM (inactive) |  |  |  | > 100 µM (inactive) | > 100 µM (inactive) | > 100 µM (inactive) | > 100 µM (inactive) | > 100 µM (inactive) | > 100 µM (inactive) | > 100 µM (inactive) | > 100 µM (inactive) | > 100 µM (inactive) | > 100 µM (inactive) | 
